Structures can show the parent of a compound that is named as a salt.

The target in the test is hNav 1.7 (Homo sapiens (Human), UniProt Q15858). As to the kind of experiment: Electrophysiological evaluation, automated patch clamp IonWorks Quattro (Population Patch Clamp mode). Type of test: cell-based. Particulars: HEK293A cells stably expressing hNav 1.7/β1/β2; response to second depolarization pulse, pre-pulse potential set to V1/2; read-out: hNav1.7 IC50.
Sequence of hNav 1.7 (Q15858 whole entry): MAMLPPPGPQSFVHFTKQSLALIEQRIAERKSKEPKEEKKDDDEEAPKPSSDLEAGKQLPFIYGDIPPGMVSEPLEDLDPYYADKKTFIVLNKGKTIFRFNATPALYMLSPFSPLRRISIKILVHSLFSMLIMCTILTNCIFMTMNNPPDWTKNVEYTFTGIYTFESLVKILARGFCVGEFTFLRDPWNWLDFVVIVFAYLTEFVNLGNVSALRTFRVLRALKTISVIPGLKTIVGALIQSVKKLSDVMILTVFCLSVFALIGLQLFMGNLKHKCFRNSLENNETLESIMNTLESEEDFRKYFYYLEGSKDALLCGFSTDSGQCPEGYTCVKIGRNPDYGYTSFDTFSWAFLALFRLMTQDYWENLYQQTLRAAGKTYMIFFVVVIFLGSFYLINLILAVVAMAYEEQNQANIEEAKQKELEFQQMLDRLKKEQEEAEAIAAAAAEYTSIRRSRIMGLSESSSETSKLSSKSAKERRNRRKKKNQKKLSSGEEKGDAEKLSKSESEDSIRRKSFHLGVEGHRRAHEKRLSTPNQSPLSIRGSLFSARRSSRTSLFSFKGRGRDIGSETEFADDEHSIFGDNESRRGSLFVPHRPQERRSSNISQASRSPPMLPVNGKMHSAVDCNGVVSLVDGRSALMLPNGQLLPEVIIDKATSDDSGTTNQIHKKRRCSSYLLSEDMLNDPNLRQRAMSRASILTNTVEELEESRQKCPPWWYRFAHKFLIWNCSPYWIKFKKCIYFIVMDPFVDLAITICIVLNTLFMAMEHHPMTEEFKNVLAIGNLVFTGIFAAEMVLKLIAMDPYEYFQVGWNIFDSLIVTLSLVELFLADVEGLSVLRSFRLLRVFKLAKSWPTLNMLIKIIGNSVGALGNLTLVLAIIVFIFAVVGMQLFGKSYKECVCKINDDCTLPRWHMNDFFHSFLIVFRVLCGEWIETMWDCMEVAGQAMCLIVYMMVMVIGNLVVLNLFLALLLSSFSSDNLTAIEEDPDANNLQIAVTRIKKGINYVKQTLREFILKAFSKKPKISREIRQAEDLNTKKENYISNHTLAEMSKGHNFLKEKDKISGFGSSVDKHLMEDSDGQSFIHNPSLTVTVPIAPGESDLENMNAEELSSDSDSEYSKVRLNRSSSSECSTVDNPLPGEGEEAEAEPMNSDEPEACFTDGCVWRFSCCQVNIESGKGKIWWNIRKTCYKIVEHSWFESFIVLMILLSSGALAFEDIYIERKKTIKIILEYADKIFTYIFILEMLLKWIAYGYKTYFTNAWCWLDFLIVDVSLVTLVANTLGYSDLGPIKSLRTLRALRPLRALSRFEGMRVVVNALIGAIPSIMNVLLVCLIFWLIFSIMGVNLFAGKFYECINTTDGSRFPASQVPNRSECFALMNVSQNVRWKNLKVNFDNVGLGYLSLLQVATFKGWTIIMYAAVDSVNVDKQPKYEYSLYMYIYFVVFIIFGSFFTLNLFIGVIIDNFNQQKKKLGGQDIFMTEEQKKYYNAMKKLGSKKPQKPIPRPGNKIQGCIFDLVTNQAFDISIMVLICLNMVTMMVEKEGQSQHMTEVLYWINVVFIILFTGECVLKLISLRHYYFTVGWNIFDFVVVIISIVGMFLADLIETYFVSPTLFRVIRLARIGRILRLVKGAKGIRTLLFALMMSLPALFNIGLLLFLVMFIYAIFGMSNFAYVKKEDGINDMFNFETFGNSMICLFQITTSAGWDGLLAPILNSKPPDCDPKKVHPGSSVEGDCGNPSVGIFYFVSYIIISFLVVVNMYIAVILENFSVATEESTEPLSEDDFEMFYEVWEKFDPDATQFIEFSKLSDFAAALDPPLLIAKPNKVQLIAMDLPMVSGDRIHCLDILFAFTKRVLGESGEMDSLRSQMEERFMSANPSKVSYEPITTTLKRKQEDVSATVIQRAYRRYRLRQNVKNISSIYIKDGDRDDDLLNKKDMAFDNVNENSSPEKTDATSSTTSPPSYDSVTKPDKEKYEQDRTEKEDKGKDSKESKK
Sequence of hNav 1.7 (Q07699 19-218 partner): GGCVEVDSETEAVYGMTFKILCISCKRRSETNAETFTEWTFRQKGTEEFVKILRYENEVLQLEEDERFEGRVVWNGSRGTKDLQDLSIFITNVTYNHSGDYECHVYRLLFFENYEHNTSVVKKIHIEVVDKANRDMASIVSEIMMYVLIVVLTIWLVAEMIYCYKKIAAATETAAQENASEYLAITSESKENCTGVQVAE
Sequence of hNav 1.7 (O60939 30-215 partner): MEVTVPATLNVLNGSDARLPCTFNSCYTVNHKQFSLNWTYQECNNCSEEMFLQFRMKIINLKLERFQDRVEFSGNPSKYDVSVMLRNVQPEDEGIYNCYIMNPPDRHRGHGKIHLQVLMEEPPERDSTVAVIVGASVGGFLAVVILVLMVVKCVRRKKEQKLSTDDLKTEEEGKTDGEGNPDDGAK
In general, IC50 refers to the midpoint of a concentration-inhibition curve. For the molecule `O=S(=O)(Nc1ncns1)c1cc(F)c(O[C@H]2CCC[C@@H]2c2ccccc2)cc1F` (relative stereo) [Example 6, 2,5-Difluoro-4-{[(1S*,2R*)-2-phenylcyclopentyl]oxy}-N-(1,2,4-thiadiazol-5-yl)benzenesulfonamide], the IC50 stood at 610 nM.

For `O=S(=O)(Nc1ncns1)c1cc(F)c(O[C@H]2CCCCC[C@@H]2c2ccccc2)cc1F` (relative stereo) [Example 7, 2,5-Difluoro-4-{[(1S*,2R*)-2-phenylcycloheptyl]oxy}-N-(1,2,4-thiadiazol-5-yl)benzenesulfonamide], the IC50 stood at 450 nM.

For the molecule `Cn1nccc1[C@H]1CCCCC[C@@H]1Oc1cc(F)c(S(=O)(=O)Nc2ncns2)cc1F` (relative stereo) [Example 9, 2,5-Difluoro-4-{[(1S*,2R*)-2-(1-methyl-1H-pyrazol-5-yl)cycloheptyl]oxy}-N-(1,2,4-thiadiazol-5-yl)benzenesulfonamide], the IC50 worked out at 14 nM.

`Cn1nccc1[C@H]1CCCC[C@@H]1Oc1cc(F)c(S(=O)(=O)Nc2cscn2)cc1Cl` (relative stereo) [Example 10, 5-Chloro-2-fluoro-4-{[(1S*,2R*)-2-(1-methyl-1H-pyrazol-5-yl)cyclohexyl]oxy}-N-(1,3-thiazol-4-yl)benzenesulfonamide Na salt]: the IC50 came out at 30 nM.

`Cn1nccc1[C@H]1CCC[C@@H]1Oc1cc(F)c(S(=O)(=O)Nc2cscn2)cc1Cl` (relative stereo) [Example 11, 5-Chloro-2-fluoro-4-{[(1S*,2R*)-2-(1-methyl-1H-pyrazol-5-yl)cyclopentyl]oxy}-N-(1,3-thiazol-4-yl)benzenesulfonamide Na salt]: the IC50 came to 10 nM.

With `CCn1nccc1[C@H]1CCCC[C@@H]1Oc1cc(F)c(S(=O)(=O)Nc2cscn2)cc1Cl` (relative stereo) [Example 12, 5-Chloro-4-{[(1S*,2R*)-2-(1-ethyl-1H-pyrazol-5-yl)cyclohexyl]oxy}-2-fluoro-N-(1,3-thiazol-4-yl)benzenesulfonamide], the IC50 is 120 nM.

As to `O=S(=O)(Nc1cscn1)c1cc(Cl)c(O[C@H]2CCCC[C@@H]2n2ccnc2)cc1F` (relative stereo) [Example 13, 5-chloro-2-fluoro-4-{[(1S*,2S*)-2-(1H-imidazol-1-yl)cyclohexyl]oxy}-N-(1,3-thiazol-4-yl)benzenesulfonamide], the IC50 came out at 82 nM.

Turning to `Cn1nccc1[C@H]1CCC[C@@H]1Oc1ccc(S(=O)(=O)Nc2nccs2)cc1F` (relative stereo) [Example 16, 3-Fluoro-4-{[(1S*,2R*)-2-(1-methyl-1H-pyrazol-5-yl)cyclopentyl]oxy}-N-(1,3-thiazol-2-yl)benzenesulfonamide], the IC50 stood at 230 nM.

On to `Cn1nccc1[C@H]1CCC[C@@H]1Oc1ccc(S(=O)(=O)Nc2cc(F)ncn2)cc1F` (relative stereo) [Example 17, 3-Fluoro-N-(6-fluoropyrimidin-4-yl)-4-{[(1S*,2R*)-2-(1-methyl-1H-pyrazol-5-yl)cyclopentyl]oxy}benzenesulfonamide], for which the IC50 turned out to be 510 nM.

For `Cn1nccc1[C@H]1CCC[C@@H]1Oc1ccc(S(=O)(=O)Nc2ccnc(F)n2)cc1F` (relative stereo) [Example 18, 3-Fluoro-N-(2-fluoropyrimidin-4-yl)-4-{[(1S*,2R*)-2-(1-methyl-1H-pyrazol-5-yl)cyclopentyl]oxy}benzenesulfonamide], the IC50 is 170 nM.

For `Cn1nccc1[C@H]1CCC[C@@H]1Oc1cc(Cl)c(S(=O)(=O)Nc2ccncn2)cc1F` (relative stereo) [Example 19, 2-Chloro-5-fluoro-4-{[(1S*,2R*)-2-(1-methyl-1H-pyrazol-5-yl)cyclopentyl]oxy}-N-(pyrimidin-4-yl)benzenesulfonamide], the IC50 was 510 nM.

`Cn1nccc1[C@H]1CCC[C@@H]1Oc1ccc(S(=O)(=O)Nc2ccncn2)cc1C(F)(F)F` (relative stereo) [Example 21, 4-{[(1S*,2R*)-2-(1-Methyl-1H-pyrazol-5-yl)cyclopentyl]oxy}-N-(pyrimidin-4-yl)-3-(trifluoromethyl)benzenesulfonamide]: the IC50 is 250 nM.

`O=S(=O)(Nc1ccncn1)c1cc(F)c(O[C@H]2CCCC[C@@H]2c2ccn[nH]2)cc1F` (relative stereo) [Example 22, 2,5-Difluoro-4-{[(1S*,2R*)-2-(1H-pyrazol-5-yl)cyclohexyl]oxy}-N-(pyrimidin-4-yl)benzenesulfonamide]: the IC50 was 520 nM.

`Cn1nccc1[C@H]1CCC[C@@H]1Oc1cc(F)c(S(=O)(=O)Nc2ccnc(F)n2)cc1F` (relative stereo) [Example 24, 2,5-Difluoro-N-(2-fluoropyrimidin-4-yl)-4-{[(1S*,2R*)-2-(1-methyl-1H-pyrazol-5-yl)cyclopentyl]oxy}benzenesulfonamide]: the IC50 turned out to be 23 nM.

For `Cn1nccc1[C@H]1CCC[C@@H]1Oc1ccc(S(=O)(=O)Nc2ccncn2)cc1C#N` (relative stereo) [Example 26, 3-Cyano-4-{[(1S*,2R*)-2-(1-methyl-1H-pyrazol-5-yl)cyclopentyl]oxy}-N-(pyrimidin-4-yl)benzenesulfonamide], the IC50 amounted to 200 nM.

For the molecule `Nc1n[nH]cc1[C@H]1CCCC[C@@H]1Oc1cc(F)c(S(=O)(=O)Nc2ccncn2)cc1F` (relative stereo) [Example 34, 4-{[(1S*,2R*)-2-(3-Amino-1H-pyrazol-4-yl)cyclohexyl]oxy}-2,5-difluoro-N-(pyrimidin-4-yl)benzenesulfonamide], the IC50 stood at 250 nM.

As to `Nc1cc([C@H]2CCC[C@@H]2Oc2cc(F)c(S(=O)(=O)Nc3ccncn3)cc2F)ccn1` (relative stereo) [Example 36, 4-{[(1S*,2R*)-2-(2-Aminopyridin-4-yl)cyclopentyl]oxy}-2,5-difluoro-N-(pyrimidin-4-yl)benzenesulfonamide], the IC50 was determined as 500 nM.

On to `O=S(=O)(Nc1ccncn1)c1cc(F)c(O[C@H]2CCCC[C@@H]2c2cccnc2)cc1F` (relative stereo) [Example 39, 2,5-Difluoro-4-{[(1S*,2R*)-2-(pyridin-3-yl)cyclohexyl]oxy}-N-(pyrimidin-4-yl)benzenesulfonamide], for which the IC50 turned out to be 1000 nM.

For the molecule `Cn1cncc1[C@H]1CCCC[C@@H]1Oc1cc(F)c(S(=O)(=O)Nc2ccncn2)cc1F` (relative stereo) [Example 49, 2,5-Difluoro-4-{[(1S*,2R*)-2-(1-methyl-1H-imidazol-5-yl)cyclohexyl]oxy}-N-(pyrimidin-4-yl)benzenesulfonamide], the IC50 was 660 nM.

`O=S(=O)(Nc1ccncn1)c1cc(F)c(O[C@H]2CCCC[C@@H]2c2ccnnc2)cc1F` (relative stereo) [Example 53, 2,5-Difluoro-4-{[(1S*,2R*)-2-(pyridazin-4-yl)cyclohexyl]oxy}-N-(pyrimidin-4-yl)benzenesulfonamide]: the IC50 was found to be 330 nM.

As to `CCc1cc(S(=O)(=O)Nc2ccncn2)c(F)cc1O[C@H]1CCC[C@@H]1c1ccnn1C` (relative stereo) [Example 61, 5-Ethyl-2-fluoro-4-{[(1S*,2R*)-2-(1-methyl-1H-pyrazol-5-yl)cyclopentyl]oxy}-N-(pyrimidin-4-yl)benzenesulfonamide], the IC50 came out at 2.6 nM.

Take `Cc1ncccc1[C@H]1CCCC[C@@H]1Oc1cc(F)c(S(=O)(=O)Nc2ccncn2)cc1F` (relative stereo) [Example 70, 2,5-Difluoro-4-{[(1S*,2R*)-2-(2-methylpyridin-3-yl)cyclohexyl]oxy}-N-(pyrimidin-4-yl)benzenesulfonamide]: the IC50 amounted to 330 nM.

With `CCc1cc(S(=O)(=O)Nc2ccncn2)ccc1O[C@H]1CCCC[C@@H]1c1c[nH]nc1N` (relative stereo) [Example 89, 4-{[(1S*,2R*)-2-(3-Amino-1H-pyrazol-4-yl)cyclohexyl]oxy}-3-ethyl-N-(pyrimidin-4-yl)benzenesulfonamide], the IC50 was found to be 130 nM.

On to `Cn1nncc1[C@H]1CCCC[C@@H]1Oc1cc(F)c(S(=O)(=O)Nc2ccncn2)cc1F` (relative stereo) [Example 92, 2,5-Difluoro-4-{[(1S*,2R*)-2-(1-methyl-1H-1,2,3-triazol-5-yl)cyclohexyl]oxy}-N-(pyrimidin-4-yl)benzenesulfonamide], for which the IC50 turned out to be 1000 nM.

With `Cn1nccc1[C@@H]1[C@@H](Oc2cc(F)c(S(=O)(=O)Nc3ccncn3)cc2F)CCC1(C)C` (relative stereo) [Example 99, 4-{[(1S*,2R*)-3,3-Dimethyl-2-(1-methyl-1H-pyrazol-5-yl)cyclopentyl]oxy}-2,5-difluoro-N-(pyrimidin-4-yl)benzenesulfonamide], the IC50 amounted to 410 nM.

Consider `Cn1nccc1[C@@H]1[C@@H](Oc2cc(F)c(S(=O)(=O)Nc3ccncn3)cc2F)CCC[C@H]1OCc1ccccc1` (relative stereo) [Example 100, 4-{[(1S*,2S*,3R*)-3-(Benzyloxy)-2-(1-methyl-1H-pyrazol-5-yl)cyclohexyl]oxy}-2,5-difluoro-N-(pyrimidin-4-yl)benzenesulfonamide], for which the IC50 came to 380 nM.

As to `Cn1nccc1[C@H]1C[C@@H](F)C[C@@H]1Oc1cc(F)c(S(=O)(=O)Nc2ccncn2)cc1F` (relative stereo) [Example 106, 2,5-Difluoro-4-{[(1S*,2R*,4R*)-4-fluoro-2-(1-methyl-1H-pyrazol-5-yl)cyclopentyl]oxy}-N-(pyrimidin-4-yl)benzenesulfonamide], the IC50 was 270 nM.

Consider `Cn1nccc1[C@H]1C[C@H](OCc2ccccc2)CC[C@@H]1Oc1cc(F)c(S(=O)(=O)Nc2ccncn2)cc1F` (relative stereo) [Example 112, 4-{[(1S*,2R*,4R*)-4-(Benzyloxy)-2-(1-methyl-1H-pyrazol-5-yl)cyclohexyl]oxy}-2,5-difluoro-N-(pyrimidin-4-yl)benzenesulfonamide], for which the IC50 amounted to 310 nM.

For `Cn1nccc1[C@@H]1[C@@H](Oc2cc(F)c(S(=O)(=O)Nc3ccncn3)cc2F)CCCC1(F)F` (relative stereo) [Example 117, 4-{[(1S*,2R*)-3,3-Difluoro-2-(1-methyl-1H-pyrazol-5-yl)cyclohexyl]oxy}-2,5-difluoro-N-(pyrimidin-4-yl)benzenesulfonamide], the IC50 was 750 nM.

Source of the values: patent publication US9493448B2, “Cycloalkane derivatives” (Daiichi Sankyo Company, Limited, priority 2012, dated 2016).
